# Entries after “also recorded” stand apart in the source; their conditions may differ. Counter-ions that a name gives are not always drawn.
# Experiments:
# [1] = system: SOM-dependent feedback loop, CA1 PCs; assay: Feedback loop-activating protocol (FLAP) in CA1 PCs; format: cell-based, mice; conditions: for synaptic AP probability (conversion of EPSPs to APs) in FLAP: 10 μM washed in, 10-30 min vs baseline; for EPSP amplitude in the FLAP: wash-in of 10 μM after 10 min baseline
# Protocol: A 300 ms depolarizing current between +100 and +[…] was injected via the patch pipette into a PC to elicit a train of 5-10 APs. After an interval of 600 ms, one EPSP (5-10 mV amplitude) was elicited by Schaffer collateral stimulation. This pattern was continuously repeated at a frequency of 0.2 Hz. Substances were added by bath application after a stable 10 min baseline recording for an additional 20 min. For data analysis the maximum EPSP amplitudes from minutes 0-10 were averaged and compared to averaged maximum EPSP amplitudes from minutes 20-30.
# The slope of the EPSP rise at 20% to 40% of its maximal amplitude, at which point an approximately linear increase in its voltage could be assumed, was fitted with Fitmaster software (HEKA, Germany). We analyzed 20 EPSPs before and 20 EPSPs 25-30 minutes after NAB-14 wash-in in the FLAP protocol for each experiment. The coefficient of variation (CV) is the standard deviation of the EPSP slopes divided by the mean. The inverse square of the CV of the postwash-in slopes was divided by the inverse square of the prewash-in slopes and plotted against the corresponding normalized slopes. Pre- and postwash-in measurements from a single experiment are connected by a line. In a standard quantal model for synaptic transmission, synaptic responses are affected either by presynaptic changes in the number of release sites and/or the probability of release or by modifications of the postsynaptic response to a single […]. A change in the ratio of CV-2 reflects a presynaptic action, whereas horizontal lines in the CV-2 plot indicate a change in postsynaptic responsiveness.
# [2] = system: CA3-CA1 synapse, CA1 pyramidal neurons in hippocampal brain slices; assay: LTP/LTD protocols and wash-in in brain slices of unstressed mice, substance in bathing solution; format: cell-based; conditions: for LTP inducibility, associative LTP protocol (aLTP): bath with picrotoxin, R,S-ketamine 10 μM, S-ketamine 5 μM
# [3] = system: CDM mice; assay: Nose-poke sucrose preference test in CDM mice; format: in vivo; conditions: CDM mice, POST1 and POST2 nights
# Excerpt: Behavioral Readout: After the treatment intervention, animals were either tested in an additional swim session (test day) to measure immobility time or tested in the InteliCage using the Nose-pokes sucrose preference test. For the assessment of the immobility time, mice were videotaped and two independent raters who were blinded to the experimental group analyzed the videos. Immobility time was defined as the cumulative time that the animals spend stationary with only enough movements of the tails or the forepaws to keep the head above the water surface. No distance is actively travelled except for passive floating, no directed movement of the front paws observed and the body of the animal mostly oriented parallel to the walls of the cylinder.
# The IntelliCage system (TSE Systems) allows simultaneous analysis of spontaneous and exploratory behavior, activity pattern, and drinking preference of up to 16 group-housed mice implanted with radio-frequency identification (RFID) transponders. The unit consists of an open common space with 4 red shelters in the center and 4 recording corners. Mice have free access to food in the middle of the IntelliCage, water is available in the corners behind remote-controlled guillotine doors. Each corner is equipped with 2 drinking bottles and permits the visit of only one mouse at the same time. The scored parameters—the nosepokes toward the doors and the licks on the bottles—were monitored by a PC-based tracking software (IntelliCage Plus, TSE Systems). Initially, the mice were allowed to adapt to the IntelliCage for at least 7 days with water available ad libitum in all corners. Then for 3 days the animals were habituated to the sucrose taste: in each corner one of the bottles was filled with 1% sucrose solution and the other one with water. Both doors in the corner were open allowing free choice between the bottles. Next, a nosepoke adaptation period was carried out, where all doors were closed and the mice had to perform a nosepoke to open them. The opened door closes automatically after 5 s of drinking. In all tasks involving sucrose-filled bottles, the positions of the bottles were exchanged every 24 h. The Nosepoke SPT protocol was used (see Alboni et al.) for measurement of sucrose preference with gradually increasing effort (number of nosepokes) to reach the sucrose bottles for a short period of time (12 h). In this paradigm each door opens in response to a nosepoke and closes after 5 s licking. The number of nosepokes needed to open a door to a side with a sucrose containing bottle gradually increases (1, 2, 3, 4, 5, 6, 8, 10, 12, 16, 20, 24) after every 8 sucrose licking sessions. For each bottle the number of licks was recorded and the averaged sucrose preference was calculated as percentage of the total number of licks.
# [4] = unstressed mice, NAB-14 in bathing solution
structure (smiles),measurement,setting,value
CCN(CC)C(=O)Oc1ccc(C(=O)Nc2cccc3cc[nH]c23)cc1 [NAB-14],synaptic AP probability (conversion of EPSPs to APs) in FLAP,[1],significant increase in synaptic AP probability
same,PC excitability: number of APs during the burst and input resistance (Rm),[1]; NAB-14 10 μM in FLAP,did not significantly change; also recorded: no significant alteration in AP number; also recorded: no significant change in postsynaptic input resistance
same,coefficient of variation (CV) analysis of EPSP slopes before and after wash-in,[1]; NAB-14 wash-in in FLAP,consistent with a postsynaptic mechanism
same,EPSP amplitude in the FLAP,[1],significantly increased; also recorded: increased significantly
same,EPSP amplitude after aLTD stimulation,[2]; [4],strongly increased the EPSP amplitude; also recorded: significant increase
same,basal EPSP-amplitude / synaptic transmission,[2]; [4],did not change synaptic transmission; also recorded: did not affect basal EPSP-amplitude
same,IiLTP induced increase of EPSP amplitude,"[2]; unstressed mice, NAB-14 in bathing solution, vs control IiLTP",increased IiLTP; also recorded: enhance IiLTP induced increase of EPSP amplitude significantly
same,sucrose preference,[3]; NAB (5 μM as printed) injection,fully reestablished
"CNC1(c2ccccc2Cl)CCCCC1=O (stereo not shown) [R,S-ketamine, R,S-Ketamine hydrochloride]",synaptic AP probability (conversion of EPSPs to APs) in FLAP,[1]; hydrochloride,higher percentage of APs; also recorded: significant increase in synaptic AP probability
same,EPSP amplitude in the FLAP,[1]; hydrochloride,dramatically increased
same,EPSP amplitude in the FLAP,"[1]; listed as ketamine, hydrochloride",increased significantly
same,LTD induction,[2],could be blocked
same,"paired-pulse ratio (PPR, EPSP2/EPSP1) before and after weak-aLTP (li-LTP) induction",[2],unchanged
same,"EPSP amplitude after associative LTD protocol (aLTD, NMDAR-independent)",[2]; hydrochloride,"unaffected; also recorded: neither R,S-ketamine (10 μM) nor S-ketamine (5 μM) had an effect"
same,"LTD inducibility, non-associative 1 Hz LTD protocol (NMDAR-dependent)",[2]; hydrochloride,fully blocked; also recorded: abolished
same,"LTP inducibility, non-associative 100 Hz LTP protocol",[2]; hydrochloride,significant blockade of inducibility of LTP
same,aLTP induction,[2]; hydrochloride,neither K nor SK blocked aLTP induction; also recorded: not affected
same,low intensity LTP (IiLTP) induction,[2]; hydrochloride,blocked LTP induction; also recorded: blockade of LTP induction
same,"low intensity LTP (IiLTP), EPSP amplitude",[2]; hydrochloride,significant increase in EPSP amplitude; also recorded: even enhanced LTP induction
same,"LTP inducibility, associative LTP protocol (aLTP)","[2]; unstressed mice, hydrochloride",significant blockade of inducibility of LTP
same,"LTP inducibility, associative LTP protocol (aLTP)","[2]; unstressed mice, listed as K, hydrochloride",complete inhibition of LTP
same,sucrose preference,"[3]; single R,S-ketamine injection, hydrochloride",renormalized; also recorded: completely reestablished
